Laboratory results from PubChem BioAssay (NCI).
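Dose response: 5 concentrations. Exposure: 48 h. Format: 96-well plates. Endpoint: linear interpolation; highest concentration if not reached. TGI is the concentration that stops growth completely.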

Key:
Test in all cases: DTP human tumour cell line panel, 48 h
MOLT-4 leukemia = test system: MOLT-4 leukemia
IGROV1 ovarian = test system: IGROV1 ovarian
MDA-MB-435 = test system: MDA-MB-435
SF-539 CNS = test system: SF-539 CNS
SF-268 CNS = test system: SF-268 CNS
MDA-N = test system: MDA-N
RPMI-8226 leukemia = test system: RPMI-8226 leukemia
A498 renal = test system: A498 renal
BT-549 breast = test system: BT-549 breast
SF-295 CNS = test system: SF-295 CNS
U251 CNS = test system: U251 CNS
HOP-62 NSCLC = test system: HOP-62 NSCLC
TK-10 renal = test system: TK-10 renal
MDA-MB-231 breast = test system: MDA-MB-231 breast
COLO 205 colon = test system: COLO 205 colon
UACC-62 melanoma = test system: UACC-62 melanoma
RXF 393 renal = test system: RXF 393 renal
OVCAR-8 ovarian = test system: OVCAR-8 ovarian
SK-OV-3 ovarian = test system: SK-OV-3 ovarian
KM12 colon = test system: KM12 colon
NCI-H23 lung = test system: NCI-H23 lung
A549 NSCLC = test system: A549 NSCLC
SK-MEL-2 melanoma = test system: SK-MEL-2 melanoma
HS 578T breast = test system: HS 578T breast
SN12C renal = test system: SN12C renal
SNB-75 CNS = test system: SNB-75 CNS
NCI/ADR-RES ovarian = test system: NCI/ADR-RES ovarian
EKVX NSCLC = test system: EKVX NSCLC
PC-3 prostate = test system: PC-3 prostate
CCRF-CEM leukemia = test system: CCRF-CEM leukemia
HCT-15 colon = test system: HCT-15 colon
HL-60(TB) leukemia = test system: HL-60(TB) leukemia
HCT-116 colon = test system: HCT-116 colon
OVCAR-5 ovarian = test system: OVCAR-5 ovarian
CAKI-1 renal = test system: CAKI-1 renal
HT29 colon = test system: HT29 colon
OVCAR-3 ovarian = test system: OVCAR-3 ovarian
MCF7 breast = test system: MCF7 breast
T-47D breast = test system: T-47D breast
SW-620 colon = test system: SW-620 colon
LOX IMVI melanoma = test system: LOX IMVI melanoma
UACC-257 melanoma = test system: UACC-257 melanoma
ACHN renal = test system: ACHN renal
K-562 leukemia = test system: K-562 leukemia
OVCAR-4 ovarian = test system: OVCAR-4 ovarian
M14 melanoma = test system: M14 melanoma
MALME-3M melanoma = test system: MALME-3M melanoma
SNB-19 CNS = test system: SNB-19 CNS
NCI-H226 lung = test system: NCI-H226 lung
NCI-H522 lung = test system: NCI-H522 lung
SK-MEL-5 melanoma = test system: SK-MEL-5 melanoma
SK-MEL-28 melanoma = test system: SK-MEL-28 melanoma
HOP-92 NSCLC = test system: HOP-92 NSCLC
HCC-2998 colon = test system: HCC-2998 colon
DU-145 prostate = test system: DU-145 prostate
UO-31 renal = test system: UO-31 renal
786-0 renal = test system: 786-0 renal
NCI-H460 lung = test system: NCI-H460 lung
SR leukemia = test system: SR leukemia

With O=C(O)c1ccccc1Sc1ccccc1[N+](=O)[O-] the TGI (MOLT-4 leukemia) was > 100 µM, the TGI (IGROV1 ovarian) was > 100 µM and the TGI (MDA-MB-435) was > 100 µM. The TGI (SF-539 CNS) was > 100 µM, the TGI (SF-268 CNS) was > 100 µM and the TGI (MDA-N) was > 100 µM. For the same compound, the TGI (RPMI-8226 leukemia) was > 100 µM, the TGI (A498 renal) was > 100 µM and the TGI (BT-549 breast) was > 100 µM. For the same compound, the TGI (SF-295 CNS) was > 100 µM, the TGI (U251 CNS) was > 100 µM and the TGI (HOP-62 NSCLC) was > 100 µM. The TGI (TK-10 renal) was > 100 µM, the TGI (MDA-MB-231 breast) was > 100 µM and the TGI (COLO 205 colon) was > 100 µM. For the same compound, the TGI (UACC-62 melanoma) was > 100 µM, the TGI (RXF 393 renal) was > 100 µM and the TGI (OVCAR-8 ovarian) was > 100 µM. The TGI (SK-OV-3 ovarian) was > 100 µM, the TGI (KM12 colon) was > 100 µM and the TGI (NCI-H23 lung) was > 100 µM. The TGI (A549 NSCLC) was > 100 µM, the TGI (SK-MEL-2 melanoma) was > 100 µM and the TGI (HS 578T breast) was > 100 µM. The TGI (SN12C renal) was > 100 µM, the TGI (SNB-75 CNS) was > 100 µM and the TGI (NCI/ADR-RES ovarian) was > 100 µM. For the same compound, the TGI (EKVX NSCLC) was > 100 µM, the TGI (PC-3 prostate) was > 100 µM and the TGI (CCRF-CEM leukemia) was > 100 µM. For the same compound, the TGI (HCT-15 colon) was > 100 µM, the TGI (HL-60(TB) leukemia) was > 100 µM and the TGI (HCT-116 colon) was > 100 µM. For the same compound, the TGI (OVCAR-5 ovarian) was > 100 µM, the TGI (CAKI-1 renal) was > 100 µM and the TGI (HT29 colon) was > 100 µM. The TGI (OVCAR-3 ovarian) was > 100 µM, the TGI (MCF7 breast) was > 100 µM and the TGI (T-47D breast) was > 100 µM. For the same compound, the TGI (SW-620 colon) was > 100 µM, the TGI (LOX IMVI melanoma) was > 100 µM and the TGI (UACC-257 melanoma) was > 100 µM. For the same compound, the TGI (ACHN renal) was > 100 µM, the TGI (K-562 leukemia) was > 100 µM and the TGI (OVCAR-4 ovarian) was > 100 µM. For the same compound, the TGI (M14 melanoma) was > 100 µM, the TGI (MALME-3M melanoma) was > 100 µM and the TGI (SNB-19 CNS) was > 100 µM. The TGI (NCI-H226 lung) was > 100 µM, the TGI (NCI-H522 lung) was > 100 µM and the TGI (SK-MEL-5 melanoma) was > 100 µM. For the same compound, the TGI (SK-MEL-28 melanoma) was > 100 µM, the TGI (HOP-92 NSCLC) was > 100 µM and the TGI (HCC-2998 colon) was > 100 µM. For the same compound, the TGI (DU-145 prostate) was > 100 µM, the TGI (UO-31 renal) was > 100 µM and the TGI (786-0 renal) was > 100 µM. The TGI (NCI-H460 lung) was > 100 µM.

Work on C/C(=N/OC(=O)c1cccc2c(=O)c3ccccc3[nH]c12)[C@H]1CC[C@H]2[C@@H]3CCC4=C/C(=N/OC(=O)c5cccc6c(=O)c7ccccc7[nH]c56)CC[C@]4(C)[C@H]3CC[C@]12C yielded a TGI (MOLT-4 leukemia) of 39.6 µM, a TGI (IGROV1 ovarian) of 37.1 µM and a TGI (MDA-MB-435) of 33.3 µM. For the same compound, the TGI (SF-539 CNS) was 29.5 µM, the TGI (SF-268 CNS) was 45.5 µM and the TGI (MDA-N) was 30.3 µM. For the same compound, the TGI (RPMI-8226 leukemia) was 14.6 µM, the TGI (BT-549 breast) was 34.8 µM and the TGI (SF-295 CNS) was 34.6 µM. For the same compound, the TGI (U251 CNS) was 29.6 µM, the TGI (HOP-62 NSCLC) was 51.2 µM and the TGI (TK-10 renal) was 45.2 µM. It also gave a TGI (MDA-MB-231 breast) of 30.6 µM, a TGI (COLO 205 colon) of 30.3 µM and a TGI (UACC-62 melanoma) of 32.1 µM. The TGI (OVCAR-8 ovarian) was 33.3 µM, the TGI (SK-OV-3 ovarian) was 93.2 µM and the TGI (KM12 colon) was 38.2 µM. For the same compound, the TGI (NCI-H23 lung) was 29.9 µM, the TGI (A549 NSCLC) was > 100 µM and the TGI (SK-MEL-2 melanoma) was 32.8 µM. The TGI (HS 578T breast) was > 100 µM, the TGI (SN12C renal) was 30.6 µM and the TGI (SNB-75 CNS) was 97.6 µM. For the same compound, the TGI (SR leukemia) was 25.3 µM, the TGI (NCI/ADR-RES ovarian) was 43.1 µM and the TGI (EKVX NSCLC) was 71.3 µM. For the same compound, the TGI (PC-3 prostate) was 31.5 µM, the TGI (CCRF-CEM leukemia) was 16.3 µM and the TGI (HCT-15 colon) was 27 µM. The TGI (HL-60(TB) leukemia) was 34 µM, the TGI (HCT-116 colon) was 25 µM and the TGI (OVCAR-5 ovarian) was 33.7 µM. It also gave a TGI (CAKI-1 renal) of 47.2 µM, a TGI (HT29 colon) of 28.8 µM and a TGI (OVCAR-3 ovarian) of 34.4 µM. It also gave a TGI (MCF7 breast) of 26.4 µM, a TGI (T-47D breast) of 58.8 µM and a TGI (SW-620 colon) of 27.1 µM. For the same compound, the TGI (LOX IMVI melanoma) was 26.7 µM, the TGI (UACC-257 melanoma) was 33.4 µM and the TGI (ACHN renal) was 29.5 µM. For the same compound, the TGI (K-562 leukemia) was > 100 µM, the TGI (OVCAR-4 ovarian) was > 100 µM and the TGI (M14 melanoma) was 29.7 µM. For the same compound, the TGI (MALME-3M melanoma) was 37.3 µM, the TGI (SNB-19 CNS) was 39.4 µM and the TGI (NCI-H226 lung) was 52.8 µM. The TGI (NCI-H522 lung) was 26.2 µM, the TGI (SK-MEL-5 melanoma) was 26.4 µM and the TGI (HOP-92 NSCLC) was 42.6 µM. The TGI (HCC-2998 colon) was 26.9 µM, the TGI (DU-145 prostate) was 79.3 µM and the TGI (UO-31 renal) was 28.5 µM. For the same compound, the TGI (786-0 renal) was 44.7 µM.
